Data as given in patent publication US8603945B2, “Methods and compositions for providing salicyclic acid-independent pathogen resistance in plants” (The Regents of the University of California, priority 2008, dated 2013).
“Also recorded” adds a separate entry of the source. Read-outs that look alike come from different tables or passages of the source.

Columns and labels:
[1] = test system: HpNoco2 (virulent Peronospora); test: HpNoco2 disease resistance assay on soil grown seedlings (spore / sporangiophore counts 7 dpi); assay type: in vivo, Arabidopsis; conditions: for efficiency in inducing resistance to HpNoco2 (defense inducing activity): infection 48 hours after treatment, structure-activity analysis
Procedure: (§1) (A) RT-PCR analysis of CaBP22 and WRKY70 expression in Col-0 (wild type) and mutant backgrounds 24 hours after spraying 2 week old seedlings with water (un), 1 mM SA, or 100 μM DCA. ACT8 is shown as loading control. […] (B) Two week old seedlings were sprayed with virulent HpNoco2 24 hours after pre-treatment with 100 uM DCA. Spores were counted 7 days after spray infection. Means and standard errors were calculated from three independent experiments. Mann-Whitney U test (p<0.05) was used to determine significant differences among mutants.
(§2) A: Extent of disease susceptibility/resistance determined by counting the numbers of Peronospora sproangiophores of 17 day old seedlings 7 d after spray-inoculation with 5E4 HpNoco2 spores/ml. 24 h prior to infection with Noco2 the aerial parts of the soil grown seedlings were sprayed with the indicated concentrations of DCA (compound 67) or SA. Three replicates each with at least 30 seedlings per treatment gave similar results. […] Concentrations higher than 100 μM caused cell death, as indicated by reduced GUS staining.
(§3) (A) Chemical structures of DCA analogs analyzed. (B) Fluorometric analysis of GUS activities induced by DCA analogs. Proteins were extracted from 2 week old soil grown Col-0 seedlings 48 hours after spray-treatment with compounds at the indicated concentrations (uM). Means and standard errors calculated from 3 independent replicates. (c) HpNoco2 growth inhibition assay. 2 week old soil grown Col-0 seedlings were spray-infected with HpNoco2 48 hours after treatment with varying concentrations (uM) of each DCA analog. Seedlings were assayed 7 dpi for Peronospora growth (spore counts). 100% inhibition=0 spores. Assay was repeated three times with similar results.
DCA induces disease resistance. Time-course experiment with 2-week old Col-0 seedlings that were sprayed with 100 uM of the respective compounds at the indicated times prior to HpNoco2 (3×10^4 spores/ml) spray-infection. Spores were counted 7 dpi.

−333_CaBP22::GUS [2] = test: GUS activity after spray-treatment of soil grown seedlings (structure-activity analysis, FIG. 5B, FIG. 8B); assay type: in vivo, Arabidopsis; conditions: for efficiency in inducing −333_CaBP22::GUS expression (defense inducing activity): 48 hours after spray-treatment, structure-activity analysis
Procedure: as §3, with “(B) Fluorometric analysis of GUS activities induced by DCA analogs.” left out, “spores.” for “spores. Assay was repeated three times with similar results.”
DCA and the known SA-analog INA are structurally related. To compare their activities and to gain further understanding on structural features required for their defense inducing activities, a structure function analysis (SAR) was performed using multiple derivatives of DCA and INA (FIG. 8A).

−333_CaBP22::GUS [3] = test: −333_CaBP22::GUS reporter induction in one-week old seedlings grown in liquid medium (Xgluc staining / MUG assay); assay type: in vivo, Arabidopsis; conditions: for EC50: −333_CaBP22::GUS, MUG assay, read-out: EC50 value (effective concentration leading to a half-maximal response)
Procedure: A: Structure of DCA. B/C: Dose-response curves. One-week old −333_CaBP22::GUS seedlings were grown in liquid medium and incubated with the indicated concentrations of DCA (67) or SA for 24 h prior to Xgluc staining (blue, panel B) or quantitative assays for GUS activity using 4-methyl umbelliferyl-glucuronide (MUG, panel C).
LURP expression appears to be controlled by a multitude of defense regulators including AtWRKY70 and so far unknown transcription factors. […] Thus LURP-promoter/reporter systems are useful tools to screen for defense inducing chemicals. A 333_CaBP22::GUS line was used to screen chemical libraries of the Center for Plant Cell Biology at UC-Riverside for substances that induce activity of this reporter in the absence of pathogens. One week old seedlings of the reporter line grown in 96 well plates with liquid MS medium were treated with library chemicals at a final concentration of 4-20 microM in 0.001% DMSO and stained with X-Gluc to detect GUS activity 24 h later (FIG. 2). The library chemicals were transferred from 384 well plates to the 96 well screening plates by a “96 pin-tool” using a pipetting robot.
Most of the identified −333_CaBP22::GUS-inducers are structurally related to the defense hormone salicylic acid (SA). One of these compounds, 3,5-Dichloroanthranilic acid (DCA, FIG. 3A) to be particularly efficient in inducing −333_CaBP22::GUS expression. The chemical structure of this compound was confirmed by NMR and MS analyses. […] Thus, DCA has a high specificity for its cellular target. Consistent with this the EC50 value (effective concentration leading to a half-maximal response) of DCA is 6 uM (FIG. 3C), which is lower than the published EC50 value for PR1 induction by SA and its functional analog INA (65 and 10 uM, respectively; Wendehenne et al., 1998; Pillonel, 2001).

[4] = test system: −333_CaBP22::GUS seedlings; test: toxic effects on plants after spraying aerial parts of seedlings; assay type: in vivo
Procedure: as §2

CaBP22 = test: semiquantitative RT-PCR of CaBP22 expression; assay type: in vivo, Arabidopsis
Procedure: as §1, with “(A) RT-PCR analysis of CaBP22 and WRKY70 expression in Col-0 (wild type) and mutant backgrounds 24 hours after spraying 2 week old seedlings with water (un), 1 mM SA, or 100 μM DCA.” left out
As the CaBP22-induction by DCA is blocked in the wrky70 mutant, this compound can interfere with a signaling component that acts upstream from WRKY70 transcription and either independently of downstream from SA. Based on this DCA targets a WRKY70-dependent branch of the defense signaling network.

WRKY70 = test: semiquantitative RT-PCR of WRKY70 expression; assay type: in vivo, Arabidopsis
[5] = test system: Pseudomonas syringae DC3000 (Pst DC3000); test: Pst DC3000 disease resistance in Arabidopsis seedlings (dip inoculation, cfu); assay type: in vivo; conditions: 100 uM
Procedure: (§4) (A &B) 14 day old soil grown Arabidopsis Col-0 seedlings were pre-treated with 100 uM of the indicated chemical then dip inoculated with Pst DC3000. (A) Photos taken 5 dpi. (B) Quantification of Pst DC3000 growth by counting colony forming units (cfu) at day 0 (grey bars) or day 3 (black bars). Significant differences were determined by Mann-Whitney U tests (p<0.05). (C) Pst DC3000 grown in liquid culture with 100 um of the indicated chemicals or 100 ug/ml hygromycin (HYG). OD600 reflecting bacterial density was measured at indicated times (hours) after inoculation. Standard errors were all less than 0.05 so are not visible on the graph. (D) Two week old cherry tomato seedlings sprayed 0.5 mM DCA, 4 mM SA or mock-treated two days prior to swab inoculation with Pst DC3000 (OD600=0.4). Photos were taken 6 days after Pst challenge.

Pst DC3000 [6] = test: Pst DC3000 growth in liquid culture (OD600); assay type: cell-based, Pseudomonas syringae; conditions: 100 um in liquid culture
Pst DC3000 [7] = test: Pst DC3000 disease symptoms in cherry tomato seedlings (swab inoculation); assay type: in vivo; conditions: 500 uM, sprayed two days prior to inoculation
Procedure: as §4

[8] = test system: cluster of 131 Arabidopsis genes (Table 1); test: Affymetrix ATH1 whole genome microarray of induced transcriptional responses; assay type: in vivo
Procedure: This transient activity of DCA functionally discriminates it from INA and allows us to precisely correlate molecular event, such as transcriptional changes, with disease resistance. Therefore we performed a set of microarray experiments with Affymetrix ATH1 Arabidopsis whole genome chips profiling DCA- and INA-induced transcriptional responses at 48 h and 6 d post treatment. […] The reference accession numbers and information can be used by one of skill in the art to obtain the sequences and additional information from public databases available at the time of filing.

PR1 = conditions: Wendehenne et al., 1998; Pillonel, 2001; read-out: published EC50 value for PR1 induction; cited from earlier work
[9] = most Arabidopsis defense signaling mutants

Compound: O=C(O)c1cc(Cl)cc(Cl)c1 [3,5-Dichlorobenzoic acid, reference compound]
- efficiency in inducing resistance to HpNoco2 (defense inducing activity) [1]: DCA is more active than 3,5-Dichlorobenzoic acid
- efficiency in inducing −333_CaBP22::GUS expression (defense inducing activity) (−333_CaBP22::GUS [2]): DCA is more active than 3,5-Dichlorobenzoic acid

Compound: Nc1c(Cl)cccc1C(=O)O [3-Chloroanthranilic acid]
- efficiency in inducing resistance to HpNoco2 (defense inducing activity) [1]: reduced defense inducing activities
- efficiency in inducing −333_CaBP22::GUS expression (defense inducing activity) (−333_CaBP22::GUS [2]): reduced defense inducing activities

Compound: O=C(O)c1cccc(Cl)c1 [3-Chlorobenzoic acid, reference compound]
- efficiency in inducing resistance to HpNoco2 (defense inducing activity) [1]: 3-Chloroanthranilic acid is more active than 3-Chlorobenzoic acid
- efficiency in inducing −333_CaBP22::GUS expression (defense inducing activity) (−333_CaBP22::GUS [2]): 3-Chloroanthranilic acid is more active than 3-Chlorobenzoic acid

Compound: Nc1ccc(Cl)cc1C(=O)O [5-Chloroanthranilic acid]
- efficiency in inducing resistance to HpNoco2 (defense inducing activity) [1]: reduced defense inducing activities
- efficiency in inducing −333_CaBP22::GUS expression (defense inducing activity) (−333_CaBP22::GUS [2]): reduced defense inducing activities

Compound: Nc1cccc(Cl)c1C(=O)O [6-Chloroanthranilic acid, reference compound]
- efficiency in inducing resistance to HpNoco2 (defense inducing activity) [1]: completely inactive
- efficiency in inducing −333_CaBP22::GUS expression (defense inducing activity) (−333_CaBP22::GUS [2]): completely inactive

Compound: Nc1c(Cl)cc(Cl)cc1C(=O)O [DCA, 3,5-Dichloroanthranilic acid]
- EC50 (−333_CaBP22::GUS [3]; Arabidopsis thaliana, 24 h, 24 h): 6 µM
- concentration at which active as inducer of −333_CaBP22::GUS (−333_CaBP22::GUS [3]; liquid medium, 24 h, FIG. 3B): 0.1 µM
- active at x-fold lower concentrations than SA (−333_CaBP22::GUS induction) (−333_CaBP22::GUS [3]; versus SA, FIG. 3B): 10 fold
- EC50 (−333_CaBP22::GUS [3]; 24 h): 7 µM
- resistance to HpNoco2 in npr1 mutant ([1]; 100 uM pre-treatment 24 h, npr1 mutant): slight reduction
- resistance to HpNoco2 in wrky70 mutant ([1]; 100 uM pre-treatment 24 h, wrky70 mutant): partially reduced
- duration of defense-inducing activity ([1]; 100 uM, time-course, FIG. 9): only transiently active
- time after treatment by which strong disease resistance is reached ([1]; 100 uM, time-course, FIG. 9): ≤ 1 h
- efficiency in inducing resistance to HpNoco2 (defense inducing activity) [1]: nearly identical; also recorded: equally efficient
- concentration giving efficient induction of disease resistance against virulent Peronospora (as low as) ([1]; sprayed on aerial parts of soil grown seedlings 24 h prior to HpNoco2): 10 µM
- concentrations causing cell death (reduced GUS staining) [4]: higher than 100 μM
- endogenous CaBP22 gene expression (CaBP22; 10 uM, wild type): activates
- CaBP22 expression in most mutants with deficiencies in defense signaling (CaBP22; [9]): wild type expression
- effect of nahG transgene on induction of CaBP22 (CaBP22; nahG (SA-catabolizing enzyme)): does not suppress
- CaBP22-induction in wrky70 mutant (CaBP22; wrky70 mutant): blocked
- WRKY70 expression (WRKY70; 10 uM, wild type): activates
- WRKY70 expression in most mutants with deficiencies in defense signaling (WRKY70; [9]): wild type expression
- effect of nahG transgene on induction of WRKY70 (WRKY70; nahG (SA-catabolizing enzyme)): does not suppress
- disease resistance to Pst DC3000 ([5]; Arabidopsis Col-0): triggered disease resistance
- suppression of bacterial growth (cfu) compared with SA and INA ([5]; day 3): more efficiently than SA or the frequently used SA analog INA
- growth of Pst DC3000 in in vitro cultures (Pst DC3000 [6]): does not affect growth
- Pst DC3000 mediated disease symptoms in tomato (Pst DC3000 [7]): suppressed Pst DC3000 mediated disease symptoms such as chlorosis
- efficiency in inducing −333_CaBP22::GUS expression (defense inducing activity) (−333_CaBP22::GUS [2]): nearly identical
- reporter gene expression after spraying aerial parts (−333_CaBP22::GUS [2]; spraying of 10-100 uM): induced reporter gene expression
- up-regulation of cluster of 131 genes at 48 h post treatment [8]: significantly up-regulated
- up-regulation of cluster of 131 genes at 6 d post treatment [8]: not at 6 d post DCA treatment

Compound: O=C(O)c1cc(Cl)nc(Cl)c1 [INA, 2,6-dichloroisonicotinic acid, reference compound]
- duration of defense-inducing activity ([1]; 100 uM, time-course, FIG. 9): lasts much longer leading to strong disease resistance for the entire duration of the experiment
- efficiency in inducing resistance to HpNoco2 (defense inducing activity) [1]: nearly identical; also recorded: equally efficient
- efficiency in inducing −333_CaBP22::GUS expression (defense inducing activity) (−333_CaBP22::GUS [2]): nearly identical
- up-regulation of cluster of 131 genes at 48 h post treatment [8]: significantly up-regulated
- up-regulation of cluster of 131 genes at 6 d post treatment [8]: significantly up-regulated
- EC50 (PR1): 10 µM

Compound: O=C(O)c1ccccc1O [SA, salicylic acid]
- efficiency in inducing resistance to HpNoco2 (defense inducing activity) [1]: less efficiently than DCA or INA
- efficiency in inducing −333_CaBP22::GUS expression (defense inducing activity) (−333_CaBP22::GUS [2]): less efficiently than DCA or INA
- EC50 (PR1): 65 µM

Compound: Nc1ccccc1C(=O)O [anthranilic acid, reference compound]
- efficiency in inducing resistance to HpNoco2 (defense inducing activity) [1]: nearly completely inactive
- efficiency in inducing −333_CaBP22::GUS expression (defense inducing activity) (−333_CaBP22::GUS [2]): nearly completely inactive

Compound: O=C(O)c1ccccc1 [benzoic acid, reference compound]
- efficiency in inducing resistance to HpNoco2 (defense inducing activity) [1]: nearly completely inactive
- efficiency in inducing −333_CaBP22::GUS expression (defense inducing activity) (−333_CaBP22::GUS [2]): nearly completely inactive
